Measured values taken from patent US8232283B2, “Raf inhibitors” (Forma Therapeutics, Inc., priority 2008, dated 2012).

How the values were obtained:
[1] = test system: HT-29 [B-Raf V600E mutant]; assay: Anti-proliferative activity, SRB assay, 72 hours; assay type: cell-based; conditions: Homo sapiens, read-out: CELLULAR IC50 [μM] HT-29 [B-Raf V600E mutant]
Procedure: We observed the surprising finding that compounds of the invention were useful in inhibiting proliferation of HT-29 tumor cells (see Table 3).
(§1) Cells were exposed to the test compounds at various concentrations appropriate to determine an IC50, for 72 hours, and cell proliferation was measured using the SRB assay according to Shekan et al (J Natl Cancer Inst (1990) 82, 1107-112) in order to estimate the IC50 values shown in Table 3.
(§2) Briefly, cells were plated in 96 well dishes 24 hours prior to compound addition at the densities specified in Table 11.1.
(§3) The assay was terminated with the addition of ice cold 10% TCA after growth medium has been removed and the plates were incubated over night at 4° C. The plates were then washed 5 times with water and 100 μl of a Sulforhodamine B solution ([…]) was added to each well. The plates were then incubated for 10 minutes at room temperature before removal of unbound dye by washing with 1% acetic acid. The bound dye was solubilized with 10 mM Trizma base and the absorbance read at OD520.
(§4) Inhibitory activity of the compounds was calculated as % inhibition of cell proliferation compared to cells treated with the solvent (DMSO).

A-431 [B-Raf wildtype] = assay: Anti-proliferative activity, SRB assay, 72 hours; assay type: cell-based; conditions: Homo sapiens, read-out: CELLULAR IC50 [μM] A-431 [B-Raf wildtype]
Procedure: as §1, §2, §3, §4

SMILES	IC50 [1] [µM]	IC50 (A-431 [B-Raf wildtype]) [µM]
COn1c(=O)c(-c2cc(NC(=O)c3ccc(Cl)cc3)ccc2Cl)cc2cnc(NCCN(C)C)nc21 [Compound 38, 4-Chloro-N-{4-chloro-3-[2-(2-dimethylamino-ethylamino)-8-methoxy-7-oxo-7,8-dihydro-pyrido[2,3-d]pyrimidin-6-yl]-phenyl}-benzamide]	> 10	> 10
COc1ccc(C(=O)Nc2ccc(Cl)c(-c3cc4cnc(NCCN(C)C)nc4n(OC)c3=O)c2)cc1Cl [Compound 21, 3-Chloro-N-{4-chloro-3-[2-(2-dimethylamino-ethylamino)-8-methoxy-7-oxo-7,8-dihydro-pyrido[2,3-d]pyrimidin-6-yl]-phenyl}-4-methoxy-benzamide]	< 5	> 10
COn1c(=O)c(-c2cc(NC(=O)c3cc(Cl)nc(Cl)c3)ccc2Cl)cc2cnc(NCCN(C)C)nc21 [Compound 7, 2,6-Dichloro-N-(4-chloro-3-(2-(2-(dimethylamino)ethylamino)-8-methoxy-7-oxo-7,8-dihydropyrido[2,3-d]pyrimidin-6-yl)phenyl)-isonicotinamide]	< 10	> 10
COn1c(=O)c(-c2cc(NC(=O)c3ccc(C(F)(F)F)cc3F)ccc2Cl)cc2cnc(NCCN(C)C)nc21 [Compound 20]	> 10	> 10
COn1c(=O)c(-c2cc(NC(=O)c3cc(Cl)cc(Cl)c3)ccc2Cl)cc2cnc(NCCN(C)C)nc21 [Compound 22, 3,5-Dichloro-N-{4-chloro-3-[2-(2-dimethylamino-ethylamino)-8-methoxy-7-oxo-7,8-dihydro-pyrido[2,3-d]pyrimidin-6-yl]-phenyl}-benzamide]	< 5	> 10

Results, then the molecule that gave them:

IC50 [1] [µM]	IC50 (A-431 [B-Raf wildtype]) [µM]	SMILES
< 5	> 10	COn1c(=O)c(-c2cc(NC(=O)Nc3cc(C(F)(F)F)ccc3F)ccc2Cl)cc2cnc(NCCN(C)C)nc21 [Compound 49, 1-{4-Chloro-3-[2-(2-dimethylamino-ethylamino)-8-methoxy-7-oxo-7,8-dihydro-pyrido[2,3-d]pynmidin-6-yl]-phenyl}-3-(2-fluoro-5-trifluoromethyl-phenyl)-urea]
< 10	< 10	COn1c(=O)c(-c2ccc(NC(=O)Cc3ccc(Cl)c(C(F)(F)F)c3)cc2Cl)cc2cnc(NCCN(C)C)nc21 [Compound 57, N-{3-Chloro-4-[2-(2-dimethylamino-ethylamino)-8-methoxy-7-oxo-7,8-dihydro-pyrido[2,3-d]pyrimidin-6-yl]-phenyl}-2-(4-chloro-3-trifluoromethyl-phenyl)-acetamide]
< 5	< 10	COn1c(=O)c(-c2cc(NC(=O)c3cc(Cl)nc(N4CCCCC4)c3)ccc2Cl)cc2cnc(NCCN(C)C)nc21 [Compound 60, 2-Chloro-N-(4-chloro-3-(2-(2-(dimethylamino)ethylamino)-8-methoxy-7-oxo-7,8-dihydropyrido[2,3-d]pyrimidin-6-yl)phenyl)-6-pyperidin-1-yl-isonicotinamide]
< 5	> 10	COn1c(=O)c(-c2cc(NC(=O)c3cc(Cl)nc(N4CCN(C)CC4)c3)ccc2Cl)cc2cnc(NCCN(C)C)nc21 [Compound 62, 2-Chloro-N-(4-chloro-3-(2-(2-(dimethylamino)ethylamino)-8-methoxy-7-oxo-7,8-dihydropyrido[2,3-d]pyrimidin-6-yl)phenyl)-6-(4-methyl-piperazin-1-yl)-isonicotinamide]
< 5	> 10	CCNc1cc(C(=O)Nc2ccc(Cl)c(-c3cc4cnc(NCCN(C)C)nc4n(OC)c3=O)c2)cc(Cl)n1 [Compound 63, 2-Chloro-N-(4-chloro-3-(2-(2-(dimethylamino)ethylamino)-8-methoxy-7-oxo-7,8-dihydropyrido[2,3-d]pyrimidin-6-yl)phenyl)-6-ethylamino-isonicotinamide]
